# Read-outs that look alike come from different tables or passages of the source. Starred links: 1 amine or outer side, 2 acyl side, 3 side chain; linkers in the order of their positions; H or OH if unused. Positions of bridges follow the written chain, without caps; N, C: chain ends. Non-standard residues stand in square brackets, D forms with d. Residues, ends and D or L forms follow the SMILES beside them. Groups on a side chain read outwards from the residue. *: point of attachment. Orn(4R-OH,5R-OCH2CH2NMe3+) = C[N+](C)(C)CCO[C@@H](N[*:3])[C@H](O)C[C@H](N[*:1])C(=O)[*:2]; pTerphenylCO(4''-OnC5H11) = CCCCCOc1ccc(-c2ccc(-c3ccc(C(=O)*)cc3)cc2)cc1; X1 = O=C([C@@H](N[*:1])[C@H](O)[C@@H](O)c1ccc(O)c(N[*:3])c1)[*:2]; Pro(3S-OH,4S-Me) = C[C@H]1CN[C@H](C(=O)O)[C@H]1O; Hyp = O=C(O)[C@@H]1C[C@@H](O)CN1; βAla = NCCC(=O)O; For = O=C*
# Experiments:
# Assay type in all cases: cell-based
# A. fumigatus MYA-3626 [1] = assay: MEC assay (Example 32); conditions: MEC values (24 h), rounded/compact hyphal morphology
# Procedure: (§1) MIC and MEC assays were run as described in Example 31 with the following exceptions. Starting solutions of all antifungal agents were prepared in 100% DMSO. Stock concentrations were made at 50× the highest final assay concentration and serially diluted 2-fold, 16 times in a 96-well PCR plate (VWR 83007-374). Candida and Aspergillus suspensions from Sabouraud dextrose agar plate cultures were prepared in 0.85% saline at 0.5 McFarland standard (˜0.1 OD530 nm). Candida suspensions were diluted 1:500 in RPMI (MP Biomedicals, cat no. 1060124; buffered with MOPS and adjusted with NaOH to pH 7.0) to a concentration of ˜0.5-2.5×10^3 CFU/mL and Aspergillus suspensions were diluted 1:50 in RPMI to 0.4-5×10^4 CFU/mL final concentration. 98 μL of each cell suspension in RPMI were added to test wells in a 96-well assay plate (Costar cat. no. 3370). A Beckman Multimek 96 liquid handling robot was used to dispense 2 μL of each 50× stock compound into the plate containing 98 μL of each strain in RPMI (2% final solvent concentration). Plates were shaken then incubated at 35° C. for 24-48 h prior to reading. MIC values were read visually at 50% growth inhibition for echinocandins (24 h) and at 100% growth inhibition for amphotericin B (48 h). MEC values (24 h) were read with the aid of a microscope at the lowest echinocandin concentration where rounded/compact hyphal morphology was observed.
# A. flavus ATCC MYA-3631 = assay: MEC assay (Example 32); conditions: MEC values (24 h), rounded/compact hyphal morphology
# Procedure: as §1
# A. fumigatus ATCC 13073 [2] = assay: MEC assay (Example 32); conditions: MEC values (24 h), rounded/compact hyphal morphology
# Procedure: as §1
# A. niger ATCC 16404 = assay: MEC assay (Example 32); conditions: MEC values (24 h), rounded/compact hyphal morphology
# Procedure: as §1
# A. fumigatus MYA-4609 [3] = assay: MEC assay (Example 32); conditions: MEC values (24 h), rounded/compact hyphal morphology
# Procedure: as §1
# [4] = test system: Neutrophils purified from human peripheral blood; assay: Human Neutrophil Transwell Migration Assay; conditions: 37° C., 45 minutes, % of the maximum migration possible
# Procedure, shortened: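 Neutrophils (~50,000–100,000) were placed above 5-micron transwell inserts with test compound in the lower chamber and allowed to migrate 45 min at 37° C. Migrated cells were quantified by ATP luminescence; medium-only background was subtracted and values expressed as % of cells added directly to the bottom well.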
# C. glabrata ATCC 90030 [5] = conditions: C. glabrata ATCC 90030; read at 50% growth inhibition for echinocandins (24 h), 100% for amphotericin B (48 h)
# Procedure: as §1
# C. krusei ATCC 14243 [6] = conditions: C. krusei ATCC 14243; read at 50% growth inhibition for echinocandins (24 h), 100% for amphotericin B (48 h)
# Procedure: as §1
# [7] = test system: C. parapsilosis ATCC 22019; conditions: C. parapsilosis ATCC 22019; read at 50% growth inhibition for echinocandins (24 h), 100% for amphotericin B (48 h)
# Procedure: as §1
# C. albicans ATCC 90028 [8] = conditions: C. albicans ATCC 90028; read at 50% growth inhibition for echinocandins (24 h), 100% for amphotericin B (48 h)
# Procedure: as §1
# C. tropicalis ATCC 750 = conditions: C. tropicalis ATCC 750; read at 50% growth inhibition for echinocandins (24 h), 100% for amphotericin B (48 h)
# Procedure: as §1
# C. glabrata ATCC 90030 [9] = assay: microbe, parasite or virus in culture; conditions: C. glabrata ATCC 90030; RPMI pH 7.0, 35° C., 24-48 hr
# Procedure, shortened: (§2)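 Aspergillus MEC and yeast MIC determined by 2-fold broth dilution in RPMI pH 7.0; plates incubated 35° C. until growth wells confluent (~24-48 hr), then read from below for growth inhibition or hyphal morphology change.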
# C. krusei ATCC 14243 [10] = assay: microbe, parasite or virus in culture; conditions: C. krusei ATCC 14243; RPMI pH 7.0, 35° C., 24-48 hr
# Procedure, shortened: as §2
# [11] = test system: C. parapsilosis ATCC 22019; assay: microbe, parasite or virus in culture; conditions: C. parapsilosis ATCC 22019; RPMI pH 7.0, 35° C., 24-48 hr
# Procedure, shortened: as §2
# C. albicans ATCC 90028 [12] = assay: microbe, parasite or virus in culture; conditions: C. albicans ATCC 90028; RPMI pH 7.0, 35° C., 24-48 hr
# Procedure, shortened: as §2
# A. fumigatus MYA-3626 [13] = assay: MEC assay (Example 31); conditions: RPMI pH 7.0, 35° C., 24-48 hr
# Procedure, shortened: as §2
# A. flavus MX 5948 = assay: MEC assay (Example 31); conditions: RPMI pH 7.0, 35° C., 24-48 hr
# Procedure, shortened: as §2
# A. fumigatus MX 5944 = assay: MEC assay (Example 31); conditions: RPMI pH 7.0, 35° C., 24-48 hr
# Procedure, shortened: as §2
# A. fumigatus ATCC 13073 [14] = assay: MEC assay (Example 31); conditions: RPMI pH 7.0, 35° C., 24-48 hr
# Procedure, shortened: as §2
# A. fumigatus MYA-4609 [15] = assay: MEC assay (Example 31); conditions: RPMI pH 7.0, 35° C., 24-48 hr
# Procedure, shortened: as §2
SMILES,MEC (A. fumigatus MYA-3626 [1]),MEC (A. flavus ATCC MYA-3631),MEC (A. fumigatus ATCC 13073 [2]),MEC (A. niger ATCC 16404),MEC (A. fumigatus MYA-4609 [3]),MIC (C. glabrata ATCC 90030 [5]),MIC (C. krusei ATCC 14243 [6]),MIC [7],MIC (C. albicans ATCC 90028 [8]),MIC (C. tropicalis ATCC 750),further results
"CCCCCOc1ccc(-c2ccc(-c3ccc(C(=O)N[C@H]4C[C@@H](O)[C@@H](OCC[N+](C)(C)C)NC(=O)[C@@H]5[C@@H](O)[C@@H](C)CN5C(=O)[C@H]([C@@H](C)O)NC(=O)[C@H]([C@H](O)[C@@H](O)c5ccc(O)c(NC(=O)CCNC(=O)[C@H](Cc6ccccc6)NC(=O)[C@H](CC(C)C)NC(=O)[C@H](CCSC)NC=O)c5)NC(=O)[C@@H]5C[C@@H](O)CN5C(=O)[C@H]([C@@H](C)O)NC4=O)cc3)cc2)cc1.O=C[O-] [Compound 31] ({pTerphenylCO(4''-OnC5H11)}-[Orn(4R-OH,5R-OCH2CH2NMe3+)]T[Hyp][X1]([βAla-Phe-Leu-Met-For])T[Pro(3S-OH,4S-Me)]; lactam 1-C)",0.06 µg/mL,0.06 µg/mL,0.015 µg/mL,0.25 µg/mL,0.03 µg/mL,2 µg/mL,0.5 µg/mL,0.5 µg/mL,0.5 µg/mL,0.25 µg/mL,% Neutrophil Migration ([4]; conc 0.001 μg/mL): 126.4%; % Neutrophil Migration ([4]; conc 0.01 μg/mL): 115.7%; % Neutrophil Migration ([4]; conc 0.1 μg/mL): 146.0%; % Neutrophil Migration ([4]; conc 1 μg/mL): 134.3%; % Neutrophil Migration ([4]; conc 10 μg/mL): 64.0%
"C[C@@H]1[C@H](O)[C@@H](C)/C=C/C=C/C=C/C=C/C=C/C=C/C=C/[C@H](O[C@@H]2O[C@H](C)[C@@H](O)[C@H](N)[C@@H]2O)C[C@@H]2O[C@](O)(C[C@@H](O)C[C@@H](O)[C@H](O)CC[C@@H](O)C[C@@H](O)CC(=O)O[C@H]1C)C[C@H](O)[C@H]2C(=O)O [amphotericin B, reference compound]",0.25 µg/mL,1 µg/mL,0.25 µg/mL,0.5 µg/mL,1 µg/mL,1 µg/mL,1 µg/mL,1 µg/mL,0.5 µg/mL,1 µg/mL,MIC (C. glabrata ATCC 90030 [9]): 0.25 to 1 µg/mL; MIC (C. krusei ATCC 14243 [10]): 0.25-2 ^ μg/mL; MIC [11]: 0.5 to 2 µg/mL; MIC (C. albicans ATCC 90028 [12]): 0.12 to 1 µg/mL; MEC (A. fumigatus MYA-3626 [13]): 0.5 to 2 µg/mL; MEC (A. flavus MX 5948): 0.5 to 2 µg/mL; MEC (A. fumigatus MX 5944): 0.5-2^ μg/mL; MEC (A. fumigatus ATCC 13073 [14]): 0.5 to 4 µg/mL; MEC (A. fumigatus MYA-4609 [15]): 0.5 to 4 µg/mL

# From patent US20160213742A1, “COMPOSITIONS AND METHODS FOR THE TREATMENT OF FUNGAL INFECTIONS” (priority 2013, published 2016)
